According to patent US6759238B1, “Multidrug resistance associated proteins and uses thereof” (priority 1999, dated 2004):
Values joined by “and” are separate entries in the source; they are usually repeats but may differ in a detail not shown here. Equal entries are not always repeated. Where two headings read alike, the source gives them in different places.

Assays:
[1] = test system: HIV-1IIIB in CEM-r1 cells; test: Antiviral activity (ED50, RT / p24 assay) in resistant cells; format: cell-based; conditions: for EC50: Human immunodeficiency virus 1, CEM-r1 cells, HIV
From the text: (§1) As used herein, “pM” means picomolar, “nM” means nanmolar, “μM, means micromolar, “mM” means millimolar, “ul” or “μl” mean microliter, “ml” means milliliter, “l” means liter. […] “IC50” means the inhibitory concentration at which growth is arrested by 50 percent.
(§2) The two cell lines, CEM-SS and CEM-r1 were infected with HIV-IMB at a multiplicity of 0.01, and cultured for 6 days in the presence and absence of different concentrations of test drugs. The extent of virus production was monitored by in in-house p24 antigen capture assay (50).
The antiviral effects of the different drugs were monitored by RT assays according to previously described procedures (20, 21). CEM-SS or CEM-r1 cells were infected with an inoculum of HIV-1IIIB standardized to contain 1 RT cpm/cell, and the virus-infected cells were seeded at a concentration of 0.2×10^6 cells/ml in medium containing varying concentrations of PMEA (or other test compounds). After 5 days of incubation, the RT activity of the culture supernates was determined by previously described procedures (22). […] The reaction was initiated by addition of 10 ul of virus-containing tissue culture supernatant. After 1 hr of incubation, 10 ul of the reaction mixture were spotted on a Whatman DE-81 tilter paper, air dried, and washed four times with 2×standard saline citrate (0.3 M NaCl, 0.03 M sodium citrate). The filter papers were dried, transferred to a plastic bag containing scintillation cocktail, sealed, and counted in an LKB Betaplate reader. The drug concentrations yielding half-maximal RT activity (ED50) was calculated as a measure of the antiviral efficacy of the test compounds, using the nonlinear curve-fitting software Enzfitter (Elsevier Biosoft, Cambridge, UK).

[2] = test system: HIV-1IIIB in CEM-SS cells; test: Antiviral activity (ED50, RT / p24 assay) in wild type cells; format: cell-based; conditions: Human immunodeficiency virus 1, WT (CEM-SS) cells
From the text: as §1, §2
The antiviral effects of the different drugs were monitored by RT assays according to previously described procedures (20, 21). […] After 5 days of incubation, the RT activity of the culture supernates was determined by previously described procedures (22). […] The filter papers were dried, transferred to a plastic bag containing scintillation cocktail, sealed, and counted in an LKB Betaplate reader. The drug concentrations yielding half-maximal RT activity (ED50) was calculated as a measure of the antiviral efficacy of the test compounds, using the nonlinear curve-fitting software Enzfitter (Elsevier Biosoft, Cambridge, UK).

[3] = Cytotoxicity assay (growth inhibition, Coulter counter); conditions: human
Experimental: (§3) Selection for PMEA resistance was carried out by exposing CEM-SS cells in culture to increasing concentrations of PMEA, over several months.
(§4) The IC50 values were obtained after 2 days of culture. Each result is the mean of one representative experiment performed in duplicate. The cultures with the purine nucleosides adenosine, 2′-deoxyadenosine, and arabinosyladenine contained 5 μM deoxycoformycin to inhibit adenosine deaminase activity.
(§5) All assays were performed in 24-well tissue culture plates (Costar, Cambridge, Ma.). […] At the end of the incubation, the cell concentrations, sizes, and volumes were counted in a Coulter counter (Coulter Electronics, Hialeah. Fla.).

[4] = as above; conditions: human, CEM-SS cells (wild type, parental)
Experimental: (§6) […] Each result is the mean of one representative experiment performed in duplicate. The cultures with the purine nucleosides adenosine, 2′-deoxyadenosine, and arabinosyladenine contained 5 μM deoxycoformycin to inhibit adenosine deaminase activity.
as §5

CEM-SS cells [5] = test: Phosphorylation of AZT; format: in vitro ADME, human; conditions: 10 μM AZT
Experimental: (§7) The appearance of the phosphorylated metabolites into the medium was also determined in both the cell lines. AZTDP and AZTTP were not detected in the medium of either CEM-SS or CEM-r1 cells. However, the amount of AZTMP accumulated in the media was approximately 3-fold higher in CEM-r1 cells than in CEM-SS cells.
(§8) The cartridges were conditioned with 10% MeOH Ammonium Phosphate Buffer (5 mM, pH 4.0). The sample was loaded onto the column. […] AZTDP and AZTTP were eluted with 10% MeOH Ammonium Phosphate Buffer (700 mm, pH 4.6).

CEM-r1 cells [6] = test: Phosphorylation of AZT; format: in vitro ADME, human; conditions: CEM-r1, 10 μM AZT
Experimental: as §7, §8

CEM-SS and CEM-r1 cells = test: Uptake of [3H]-AZT; format: in vitro ADME, human; conditions: 10 μM and 100 μM, up to 120 seconds
Experimental: At various time periods (0, 10, 20, 30, 40, 60, 90, 120 seconds) from the start of the incubation, aliquots of the cell suspension were removed and centrifuged through Nyosil 50 (W. F. Nye, Inc.,New Bedford, Ma.) at 14,000×g for 60 seconds at 4° C.

CEM-r1 cells [7] = test: Cytotoxicity assay (growth inhibition, Coulter counter)
Experimental: as §3, §4, §5

[8] = Efflux of [3H]-AZT and its metabolites; format: in vitro ADME, human; conditions: human, t½ for intracellular AZT, CEM-SS
Experimental: (§9) Cells were incubated for 60 minutes with [^3H]-AZT (10 μM) after which they were washed free of radioactivity, resuspended in drug-free medium and the intracellular and the extracellular concentration of [^3H]-AZT were measured. […] At least 80% of the AZTMP present intracellularly in CEM-r1 cells was excreted into the medium in 10 minutes (FIG. 6A).
(§10) Referring to Table 6 in greater detail, efflux kinetics were studied. Transport analysis of PMEA was conducted as previously described^48. […] The cells were then washed free of radioactivity and then incubated in drug-free medium in the presence of sodium azide and 2-deoxy-D-glucose. At various time periods, the amount of intracellular AZTMP was measured. As reported in Table 6, depletion of ATP led to an inhibition of AZTMP efflux (i.e. a significant accumulation of AZTMP in the CEM-r1 cells but not in the CEM-SS cells).
(§11) The suspension was centrifuged at 3,300 rpm for 7 minutes. All but 1 ml of the supernatant medium containing the free drug was aspirated. […] The cell pellet was then washed with ice-cold medium and resuspended at the same concentration in drug-free medium and maintained at 37° C. […] An aliquot of the top layer (cell free media) was analyzed for the quantitation of AZT and its metabolites.

[9] = Efflux of [3H]-AZT and its metabolites; format: in vitro ADME, human; conditions: human, t½ for intracellular AZT, CEM-r1
Experimental: as §9, §10, §11

CEM-SS cells [10] = test: Cytotoxicity assay (growth inhibition, Coulter counter)
Experimental: as §6, §5

CEM-r1 cells [11] = test: Uptake and metabolism of [3H]PMEA; conditions: for Intracellular levels: CEM-r1, 10 μM [3H]PMEA
Experimental: (§16) The mutant and parental cells were incubated with 10 μM [^3H]PMEA and at various times were analyzed for intracellular levels of PMEA and its metabolites by Partisil SAX HPLC. […] The metabolism of [^3H]PMEA was also examined in both cell lines after longer periods (i.e., 8 and 12 hr) of incubation with 10 μM [^3H]PMEA.
(§17) Exponentially growing cultures were incubated with 10 μM [^3H] PMEA for 8 or 12 hr and the cell extracts were analyzed for PMEA and its metabolites by ion exchange HPLC, as described.
(§18) Exponentially growing CEM-SS and CEM-r1 cells were harvested by centrifugation, resuspended at 1×10^6 cells/ml in fresh medium in the presence of [^3H]PMEA or [^3H]bispom-PMEA, and incubated at 37° C. At the indicated time points, aliquots of the cells were removed and centrifuged through Nyosil 50 (W. F. Nye, Inc., New Bedford, Ma.) at 13,000×g for 60 seconds at 4° C. When bispom-PMEA was investigated, an aliquot of the cell-free medium was also removed and analyzed by HPLC for determination of extracellular metabolites. The cell pellet was extracted with 70% ice-cold methanol and the aqueous phase was collected and analyzed for intracellular tritiated PMEA or tritiated bispom-PMEA and their metabolites by using HPLC analysis, essentially as described previously (23, 24).

CaCo-2 cells = test: PMEA transport in transwell culture; format: in vitro ADME; conditions: CaCo-2
From the text: A transwell culture which is permissive for cellular polarization may be used to measure the compartment to compartment flux of putative substrates. […] In addition, it is possible that expression of MPR4 depending if it is basal or apical (and this may vary by organ cultured) may determine if PMEA or PMEA-like drugs are absorbed.

CEM-SS cells [12] = test: Efflux of PMEA from bispom-PMEA loaded cells; format: in vitro ADME, human; conditions: for Efflux kinetics, PMEA: CEMss
Experimental: (§12) To examine whether the resistant cells could be altered in their capacity to retain the phosphonate analog, the clearance of [^3H]PMEA and its metabolites from CEM-SS and CME-r1 cells was determined. […] Aliquots of cells and medium sampled at different intervals over a period of 2 hr were analyzed by HPLC, and the results are shown in FIG. 4. […] Some of this clearance was probably due to the anabolism of PMEA, because the PMEAp- and PMEApp-associated radioactivity continued to accumulate within the cells, but the majority of the radioactivity was excreted into the medium as PMEA. In contrast to the results with parental cells, loss of intracellular PMEA-associated radioactivity in the resistant CEM-r1 cells was extremely rapid and the majority of the radioactivity within the cells was excreted into the medium within 20-30 minutes of incubation (FIG. 4).
(§13) Both CEM-SS and CME-r1 cells were incubated for 3 minutes with increasing concentrations (range 0.07 mM to 8.80 mM) of the prodrug for the selecting agent, Bis(POM)PMEA. After incubation, the cells were pelleted and reconstituted in drug-free medium, and the amount of PMEA present in the medium and intracellularly was measured 15 minutes after resuspension. The amount of PMEA effluxing out into the medium at 15 minutes increased initially with increasing concentration (FIG. 7A).
as §10
(§14) At the indicated times, extracts were prepared from the cells and the medium, and the prodrug and its various nucleoside/nucleotide metabolites were analyzed by HPLC as described previously (24).

CEM-r1 cells [13] = test: Efflux of PMEA from bispom-PMEA loaded cells; format: in vitro ADME, human
Experimental: as §12, §13
CEM-r1 cells were incubated with 0.07-8.8 mM Bis(POM)PMEA for 3 minutes. The cells were pelleted and reconstituted in either drug-free medium or in medium containing 0.5 mM PMEA, and the amount of PMEA present in the medium and intracellularly was measured 15 minutes after resuspension.
as §10, §14

CEM-SS cells [14] = test: Uptake and metabolism of [3H]bispom-PMEA; conditions: CEM-SS, 1 μM [3H]bispom-PMEA, 15 minutes
Experimental: (§15) Therefore, the metabolism of [^3H]bispom-PMEA (15), a lipophilic prodrug of PMEA, was analyzed in the two cell lines in order to further examine the mechanism of resistance in the mutant cell line.

CEM-r1 cells [15] = test: Uptake and metabolism of [3H]bispom-PMEA
Experimental: as §15

CEM-SS cells [16] = test: Uptake and metabolism of [3H]PMEA; conditions: 10 μM [3H]PMEA
Experimental: as §16, §17, §18

[17] = CEM-r1, 1 μM [3H]bispom-PMEA, 15 minutes

SMILES: Nc1ccn([C@@H]2CS[C@H](CO)O2)c(=O)n1 [3TC, lamivudine]
- EC50 [1]: 1.1 µM
- EC50 [2]: 0.21 µM
- IC50 at 48 h [3]: 5000 µM
- IC50 at 48 h [4]: 1000 µM

SMILES: Cc1cn([C@H]2C[C@H](N=[N+]=[N-])[C@@H](CO)O2)c(=O)[nH]c1=O [AZT, zidovudine]
- EC50 [1]: 0.14 µM
- Intracellular Concentration (CEM-SS cells [5]; 4 hours): 10 µM
- Intracellular Concentration (CEM-SS cells [5]; 8 hours): 8 µM
- Intracellular Concentration (CEM-SS cells [5]; 24 hours): 10 µM
- Intracellular Concentration (CEM-r1 cells [6]; 8 hours): 5.2 µM
- Intracellular Concentration (CEM-r1 cells [6]; 24 hours): 4.3 µM
- Cellular uptake in the two cell lines (CEM-SS and CEM-r1 cells): similar
- EC50 [2]: 0.006 µM
- IC50 at 48 h [3]: 3000 µM
- IC50 (CEM-r1 cells [7]; Homo sapiens, 24 h, read-out: Drug sensitivity (concentration to inhibit 50% growth)): 3000 µM
- half-life at 10 μM [8]: 8.1 min
- half-life at 10 μM [9]: 6.5 min
- IC50 at 48 h [4]: 500 µM
- IC50 (CEM-SS cells [10]; Homo sapiens, CEM-SS, 24 h, read-out: Drug sensitivity (concentration to inhibit 50% growth)): 500 µM

SMILES: Nc1ncnc2c1ncn2CCOCP(=O)(O)O [PMEA, 9-(2phosphonylmethoxyethyl)adenine]
- Fold Resistance (antiviral activity) ([1]; CEM-r1 vs WT): >150
- Intracellular levels (CEM-r1 cells [11]; 8 hr): 1.0 µM
- Intracellular levels (CEM-r1 cells [11]; 12 hr): 1 µM and 0.99 µM
- Intracellular level in CEM-r1 as percent of the wildtype level (CEM-r1 cells [11]; CEM-r1 vs CEM-SS, 8 hr): (56%)
- Direction of transport in transwell culture (CaCo-2 cells): more rapidly transported from the apical to the basal side
- Efflux kinetics, PMEA (CEM-SS cells [12]; Azide + Deoxyglucose): >26 min
- Efflux kinetics, PMEA (CEM-SS cells [12]; no treatment): >26 min
- Rate of efflux (CEM-SS cells [12]; parental CEM-SS cells): 0.4 pmol/min/10^6 cells
- Time to half-maximal clearance of intracellular radioactivity (CEM-SS cells [12]; parental CEM-SS cells, loaded with 1 μM [3H]bispom-PMEA, drug-free medium): about 60 min
- Increase in rate of efflux, CEM-r1 vs CEM-SS (CEM-r1 cells [13]): ~7 fold
- Amount of PMEA effluxed in the presence or absence of PMEA in the medium (CEM-r1 cells [13]; CEM-r1, medium with 0.5 mM PMEA vs drug-free): no significant difference
- Time within which the majority of the radioactivity was excreted into the medium (CEM-r1 cells [13]; CEM-r1 cells, loaded with 2 μM [3H]bispom-PMEA, drug-free medium): 20 to 30 min
- Efflux kinetics, PMEA (CEM-r1 cells [13]; CEMr-1, Azide + Deoxyglucose): >26 min
- Efflux kinetics, PMEA (CEM-r1 cells [13]; CEMr-1, no treatment): 4.4 min
- Rate of efflux (CEM-r1 cells [13]; resistant CEM-r1 cells): 2.55 pmol/min/10^6
- IC50 (CEM-r1 cells [7]; CEM-r1, 2 days of culture (Table 3)): 6200 µM
- Relative Resistance (CEM-r1 cells [7]; CEM-r1 vs CEM-SS (Table 3)): 182
- Resistance of CEM-r1 cells to the cytotoxic effects, compared with the parental cells (CEM-r1 cells [7]; CEM-r1 vs parental CEM-SS): ~250 fold and > 250 fold
- Fold Resistance (cytotoxicity) (CEM-r1 cells [7]; ratio of IC50 of resistant line to IC50 of wild type): 250
- IC50 (CEM-r1 cells [7]; read-out: Cytotoxicity IC50, CEM-r1 cells (Table 5)): 20000 µM
- Metabolite Levels, Cells (CEM-SS cells [14]): 33.1 µM
- Metabolite Levels, Medium (CEM-SS cells [14]): 4.8 nM
- Levels in CEM-r1 cells relative to those seen in parental cells (CEM-r1 cells [15]; 1 μM [3H]bispom-PMEA, 15 min): about one third
- Metabolite Levels, Cells (CEM-r1 cells [15]; [17]): 13.3 µM
- Metabolite Levels, Medium (CEM-r1 cells [15]; [17]): 23.2 nM
- Levels of extracellular PMEA, CEM-r1 vs parental CEM-SS (CEM-r1 cells [15]; medium, 1 μM [3H]bispom-PMEA, 15 min): ~5 fold
- Cross-resistance of MDR mutant CEM/VLB100 (CEM/VLB100): did not exhibit any cross-resistance
- Intracellular levels (CEM-SS cells [16]; 8 hr): 1.7 µM
- Intracellular levels (CEM-SS cells [16]; 12 hr): 2.5 µM
- IC50 (CEM-SS cells [10]; CEM-SS, 2 days of culture (Table 3)): 34 µM
- IC50 (CEM-SS cells [10]; read-out: Cytotoxicity IC50, WT (CEM-SS) cells (Table 5)): 80 µM
- IC50 (CEM-SS cells [10]; read-out: Drug sensitivity (concentration to inhibit 50% growth), CEMss, 24 h exposure (Table 6)): 80 µM
